For one molecule, LD50 and Possible metabolites results are on record in patent publication US20230331674A1 (priority 2020, published 2023).

Molecules are shown by their SMILES.

The subject of series [1] is HepG2 cells. The series is described as follows: Metabolic activity assay (cytotoxicity) in HepG2 cells. To be noted: 24 h. The procedure:
HepG2 cells (1×10^4 cells/well) were treated for 24 h with the appropriate concentrations of the compounds of interest or the corresponding vehicle (control cells), in triplicates in 96-well plates. The metabolic activities were determined using the CellTiter 96 Aqueous One Solution Cell Proliferation Assay (Promega, WI/USA), according to the manufacturer instructions.

Series [2] relates to cryopreserved human hepatocytes. As to the kind of experiment: Metabolite identification in cryopreserved hepatocytes. It counts as in vitro ADME. The conditions noted are these: 120 min, HPLC-MS. On the procedure:
Principal Phase I (oxidative) and Phase II (conjugative) metabolites have been detected and characterized following previously described procedure (Obach R. S. et al. J. Pharmacol. Exp. Ther. 1997, 283, 46-58). Briefly, the test compound 2 ([…]) was incubated at 37° C. in cryopreserved human hepatocytes (0.7 million cells/mL) for 120 min. Samples were taken at time 0 and the end of the incubation (2 h), respectively. A control sample (no test compound added) was also prepared and incubated for the same period of time. After the reaction was stopped by addition of acetonitrile, the supernatants were subjected to HPLC-MS analysis. Separation of analytes was achieved using Acquity HSS T3 column (100×2.1 mm, 1.8 μm, Waters). The sample solutions-supernatants (5 μL) were injected and eluted at a flow rate of 0.5 mL min-1, using a linear gradient of mobile phase A (0.1% formic acid in water) and mobile phase B (0.1% formic acid in MeCN). The gradient for mobile phase B was: 0-1.0 min, 5%; 1.0-7.0 min, 5%-80%; 7.0-7.5 min, 80%; 7.5-8.0 min, 80%-5%; 8.0-10.0 min, 5%. […] Retention times and the respective MS and MS/MS spectra of the species detected in the incubated sample and not in time-zero or blank sample were identified and recorded.

The molecule `COCCN(CC1CCCN(Cc2ccccc2)C1)S(=O)(=O)c1ccc2ccccc2c1` (racemic) [(±)-N-((1-benzylpiperidin-3-yl)methyl)-N-(2-methoxyethyl)naphthalene-2-sulfonamide] yielded an LD50 in series [1] of 58.67 µM. In addition, the Possible metabolites result in series [2] is “N-debenzylated, demethylated, and a demethylated+glucoronide products”.
